From article PMC7280195, “Simple ammonium salts acting on sigma-1 receptors yield potential treatments for cancer and depression” (Scientific Reports, 2020)
Like-named read-outs stand apart in the source and are kept apart here.

Tests used:
sigma-2 receptor = biological target: T1, sigma-2 receptor (Homo sapiens, UniProt Q5BJF2); experiment: biochemical; assay type: binding
T1 construct: MCF7 cells were suspended in sigma-2 assay buffer (50 mM Tris-HCl; pH 8.0), sonicated (1 minute) and the homogenate was centrifuged; endogenous in cells; host or cells: MCF7 cells (gift), membrane pellet

[1] = biological target: muscarinic acetylcholine receptor; assay type: binding, rat; conditions: for mACh R affinity pKi ± SEM (n) / Ki: rat brain membranes; for mACh R affinity pKi ± SEM (n): 1.35 nM [3H] QNB; for Ki: read-out: mACh R affinity Ki; for mACh R Ki/σ-1 R Ki: ratio between Ki values
mice [2] = experiment: Forced-swim test; assay type: in vivo
MAC13 tumours = conditions: for MAC13 tumour growth compared to vehicle control: 10 mg.kg−1 i.v. daily from day 12, P < 0.001; for tolerability in tumour-bearing mice: 10 mg.kg−1 i.v. daily, grooming activity maintained
MAC13 cells = experiment: MTS assay in MAC13 cells in vitro; assay type: cell-based, mouse; conditions: mean ± SEM, n = 6
Protocol: Cells (10,000 cells per well, 100 μl) were seeded into 96-well plates and allowed to adhere overnight. The following day drugs were added and cells were permitted to proliferate for 24 hours before the addition of 10 μl CellTiter 96 AQueous Non-Radioactive Cell Proliferation Assay reagent (Promega, Southampton, UK) as previously described. Absorbance (490 nm) readings were taken at 0, 1, 2 and 3 hours to monitor formazan formation and rates of metabolic activity were compared.

MDA-MB-468 cells [3] = experiment: cells; assay type: cell-based
[4] = biological target: human noradrenaline transporter (Homo sapiens, UniProt P23975); experiment: Monoamine transporter uptake assay, 293 cells expressing noradrenaline transporter; assay type: cell-based; conditions: for IC50: read-out: IC50 noradrenaline transport
[5] = biological target: T2, human dopamine transporter (Homo sapiens, UniProt Q01959); experiment: Monoamine transporter uptake assay, 293 cells expressing dopamine transporter; assay type: cell-based; conditions: for IC50: read-out: IC50 dopamine transport
T2 construct: expressed in transfected cells

MCF7 cells = assay type: cell-based
human 5-HT transporter = human 5-HT transporter (Homo sapiens, UniProt P31645); assay type: cell-based; conditions: for IC50: read-out: IC50 serotonin reuptake
MDA-MB-468 cells [6] = experiment: Fura-2 cytoplasmic calcium measurement in MDA-MB-468 cells; assay type: cell-based
MDA-MB-468 cells [7] = conditions: cited from earlier work
MDA-MB-468 cells [8] = conditions: cited from earlier work; remark: listed apart in the source
mice [9] = experiment: Tail suspension test; assay type: in vivo
Protocol: Animals were acclimatised to laboratory conditions before the experiment. Each animal was used only once. […] All drugs were dissolved in normal saline and different doses were administered intraperitoneally in a fixed volume of 1 ml.100 g^−1 body weight 30 minutes before the animals were subjected to the test. […] Each mouse was considered immobile when it hung passively and completely motionless. The total immobility period was recorded and compared to vehicle control group.

mice [10] = experiment: Locomotor activity (Actophotometer); assay type: in vivo; conditions: control 140 ± 15
Protocol: All drugs were dissolved in normal saline and different doses were administered intraperitoneally in a fixed volume of 1 ml.100 g^−1 body weight 30 minutes before the animals were subjected to the test.
Locomotor activity (ambulations) was measured by using a computerised Actophotometer (IMCORP, India). […] Mice were allowed to acclimatise to the observation chamber for a period of 2 minutes. The activity was monitored continuously for a period of 15 minutes. Locomotion was expressed in terms of total photobeam counts per 15 minutes per animal and compared to vehicle control groups as previously described.

[11] = dipentylammonium 5 mg.kg−1 plus BD1047 4 mg.kg−1

T2 sequence (Q01959 whole entry): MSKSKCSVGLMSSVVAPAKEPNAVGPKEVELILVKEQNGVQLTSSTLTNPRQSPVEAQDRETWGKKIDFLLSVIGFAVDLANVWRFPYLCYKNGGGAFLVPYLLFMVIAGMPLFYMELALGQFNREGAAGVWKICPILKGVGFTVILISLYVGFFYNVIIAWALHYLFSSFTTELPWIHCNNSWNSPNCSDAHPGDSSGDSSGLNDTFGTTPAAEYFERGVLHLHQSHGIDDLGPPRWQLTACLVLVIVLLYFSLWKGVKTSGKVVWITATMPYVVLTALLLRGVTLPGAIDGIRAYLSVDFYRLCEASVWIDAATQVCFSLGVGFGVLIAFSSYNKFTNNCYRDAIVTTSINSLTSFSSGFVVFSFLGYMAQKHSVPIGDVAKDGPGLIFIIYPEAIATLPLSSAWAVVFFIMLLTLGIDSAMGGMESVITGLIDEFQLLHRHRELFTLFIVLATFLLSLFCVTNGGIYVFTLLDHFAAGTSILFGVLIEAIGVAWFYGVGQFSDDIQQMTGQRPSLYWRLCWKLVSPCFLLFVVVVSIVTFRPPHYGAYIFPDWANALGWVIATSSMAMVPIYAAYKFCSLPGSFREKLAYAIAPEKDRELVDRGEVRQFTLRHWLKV
Chain of human 5-HT transporter (P31645 whole entry): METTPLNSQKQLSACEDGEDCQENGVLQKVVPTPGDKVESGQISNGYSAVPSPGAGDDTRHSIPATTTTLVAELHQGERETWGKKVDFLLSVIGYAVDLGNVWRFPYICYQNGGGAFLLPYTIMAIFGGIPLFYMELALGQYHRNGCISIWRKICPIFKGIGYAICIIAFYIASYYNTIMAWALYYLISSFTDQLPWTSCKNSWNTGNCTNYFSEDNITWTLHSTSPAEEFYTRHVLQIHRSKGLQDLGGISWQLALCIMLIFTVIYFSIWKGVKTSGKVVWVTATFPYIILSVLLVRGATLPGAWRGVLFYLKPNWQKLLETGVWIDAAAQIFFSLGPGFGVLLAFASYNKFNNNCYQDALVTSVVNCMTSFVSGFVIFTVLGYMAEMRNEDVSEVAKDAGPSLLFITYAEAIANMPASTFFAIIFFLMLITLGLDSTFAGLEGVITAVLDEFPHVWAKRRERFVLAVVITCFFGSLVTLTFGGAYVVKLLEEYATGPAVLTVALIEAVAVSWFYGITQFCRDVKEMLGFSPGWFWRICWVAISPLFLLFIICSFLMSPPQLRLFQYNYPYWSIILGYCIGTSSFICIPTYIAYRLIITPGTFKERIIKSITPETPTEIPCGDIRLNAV
T1 sequence (Q5BJF2 whole entry): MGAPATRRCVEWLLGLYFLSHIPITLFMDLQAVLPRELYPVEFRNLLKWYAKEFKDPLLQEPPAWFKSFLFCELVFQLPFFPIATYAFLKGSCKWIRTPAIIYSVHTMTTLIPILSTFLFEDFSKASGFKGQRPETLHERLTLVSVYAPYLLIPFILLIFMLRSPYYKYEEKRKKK
Chain of human noradrenaline transporter (P23975 whole entry): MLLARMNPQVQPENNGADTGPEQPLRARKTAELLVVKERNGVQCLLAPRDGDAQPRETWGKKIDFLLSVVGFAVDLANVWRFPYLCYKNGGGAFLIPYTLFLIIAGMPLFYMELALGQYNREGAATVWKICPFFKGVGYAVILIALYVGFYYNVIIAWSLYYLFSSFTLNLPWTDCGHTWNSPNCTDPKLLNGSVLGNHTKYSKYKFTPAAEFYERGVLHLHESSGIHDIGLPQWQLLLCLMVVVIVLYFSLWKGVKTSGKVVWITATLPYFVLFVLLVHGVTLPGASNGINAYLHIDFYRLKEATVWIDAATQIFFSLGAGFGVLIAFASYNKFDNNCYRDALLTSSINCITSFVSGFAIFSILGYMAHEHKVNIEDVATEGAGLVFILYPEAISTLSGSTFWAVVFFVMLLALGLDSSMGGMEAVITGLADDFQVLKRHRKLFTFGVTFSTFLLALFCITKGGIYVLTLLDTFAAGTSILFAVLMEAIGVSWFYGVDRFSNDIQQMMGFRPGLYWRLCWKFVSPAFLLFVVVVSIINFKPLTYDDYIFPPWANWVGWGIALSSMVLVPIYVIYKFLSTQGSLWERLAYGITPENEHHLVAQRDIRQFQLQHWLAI

## CCCCCCCCCCN [Decyl, decylammonium]
sigma-2 receptor
  σ-2 R affinity pKi ± SEM (n): 5.41 ± 0.07 (3)
sigma-2 receptor; read-out: σ-2 R affinity Ki
  Ki: 3.9 µM

## CCCCNCCCC [Dibutyl]
sigma-2 receptor
  σ-2 R affinity pKi ± SEM (n): 5.64 ± 0.07 (3)
sigma-2 receptor; read-out: σ-2 R affinity Ki
  Ki: 2.3 µM

## CCNCC.Cl [Diethyl]
sigma-2 receptor
  σ-2 R affinity pKi ± SEM (n): <3 (3)

## CC(C)CNCC(C)C [Diisobutyl]
sigma-2 receptor
  σ-2 R affinity pKi ± SEM (n): 5.2 ± 0.2 (3)
sigma-2 receptor; read-out: σ-2 R affinity Ki
  Ki: 6.6 µM

## CCCCCN(CCCCC)CCCCC [Tripentyl, tripentylammonium]
[1]
  mACh R affinity pKi ± SEM (n): 4.3 ± 0.4 (4)
  Ki: 47 µM
  mACh R Ki/σ-1 R Ki: 3130
sigma-2 receptor
  σ-2 R affinity pKi ± SEM (n): 6.1 ± 0.1 (3)
sigma-2 receptor; read-out: σ-2 R affinity Ki
  Ki: 0.78 µM
Mice [2]; doses up to 10 mg.kg−1
  effect on immobility time, forced-swim test: did not have any significant effect

## CCCN(CCC)CCC [Tripropyl]
sigma-2 receptor
  σ-2 R affinity pKi ± SEM (n): 4.36 ± 0.07 (3)
sigma-2 receptor; read-out: σ-2 R affinity Ki
  Ki: 44 µM

## CCCCCCN.Cl [Hexyl]
sigma-2 receptor
  σ-2 R affinity pKi ± SEM (n): 5.1 ± 0.2 (3)
sigma-2 receptor; read-out: σ-2 R affinity Ki
  Ki: 7.8 µM

## CN(C)C.Cl [Trimethyl]
sigma-2 receptor
  σ-2 R affinity pKi ± SEM (n): <3 (3)

## triisopentylammonium
MAC13 tumours
  MAC13 tumour growth compared to vehicle control: statistically significant reduction in tumour growth
  tolerability in tumour-bearing mice: no negative signs
MAC13 cells
  pIC50 reduction in MAC13 cell metabolism: 4.4 ± 0.2
MDA-MB-468 cells [3]
  pIC50 reduction of cell metabolism: 2.96 ± 0.06
  pIC50 reduction of cell metabolism, non-targeting control: 2.9 ± 0.2
[4]
  IC50: 7800 µM
[1]
  mACh R affinity pKi ± SEM (n): 3.60 ± 0.11 (5)
  Ki: 251 µM
  mACh R Ki/σ-1 R Ki: 3.4
[5]
  IC50: 1600 µM
MCF7 cells
  effect on MCF7 cells in MTS assay: without effect
Human 5-HT transporter
  IC50: 7800 µM
sigma-2 receptor
  higher affinity for sigma-2 receptors over sigma-1 receptors: 200 fold
  σ-2 R affinity pKi ± SEM (n): 6.40 ± 0.09 (3)
sigma-2 receptor; read-out: σ-2 R affinity Ki
  Ki: 0.4 µM
MDA-MB-468 cells [6]; data not shown
  concentration showing a calcium response: ≥ 1 mM

## NC1C2CC3CC(C2)CC1C3 (stereo not drawn) [2-adamantyl]
sigma-2 receptor
  σ-2 R affinity pKi ± SEM (n): 5.5 ± 0.2 (3)
sigma-2 receptor; read-out: σ-2 R affinity Ki
  Ki: 3.5 µM

## N=C(Nc1ccc(I)cc1)NC1C2CC3CC(C2)CC1C3 (stereo not drawn) [IPAG, 1-(4-iodophenyl)-3-(2-adamantyl)guanidine]
[1]
  mACh R affinity pKi ± SEM (n): 4.3
MDA-MB-468 cells [7]
  pEC50 reduction of cellular metabolic activity: 4.6
MDA-MB-468 cells [7]; read-out: EC50 reduction of cellular metabolic activity
  EC50: 24 µM
MDA-MB-468 cells [8]
  pEC50 calcium signalling: 3.9
MDA-MB-468 cells [8]; read-out: EC50 calcium signalling
  EC50: 123 µM

## CNC [Dimethyl]
sigma-2 receptor
  σ-2 R affinity pKi ± SEM (n): <3 (3)

## CC(C)NC(C)C [Diisopropyl]
sigma-2 receptor
  σ-2 R affinity pKi ± SEM (n): 4.1 ± 0.1 (3)
sigma-2 receptor; read-out: σ-2 R affinity Ki
  Ki: 71 µM

## CCCCCNCCCCC [Dipentyl, dipentylammonium]
Mice [9]; 5 mg.kg−1, 6 minutes, control 235 ± 19
  time spent immobile, tail suspension test: 116 ± 7 s
Mice [9]; [11]
  time spent immobile, tail suspension test: 182 ± 30 s
[4]
  pIC50 noradrenaline transport: 3.6 ± 0.1
  IC50: 200 µM
[1]
  mACh R affinity pKi ± SEM (n): 3.4 ± 0.2 (5)
  Ki: 380 µM
  mACh R Ki/σ-1 R Ki: 8840
[5]
  pIC50 dopamine transport: 3.2 ± 0.2
  IC50: 600 µM
Human 5-HT transporter
  pIC50 serotonin reuptake: 3.0 ± 0.2
  IC50: 1100 µM
sigma-2 receptor
  σ-2 R affinity pKi ± SEM (n): 6.9 ± 0.2 (3)
sigma-2 receptor; read-out: σ-2 R affinity Ki
  Ki: 0.12 µM
Mice [2]; 5 mg.kg−1 i.p., 6 minutes, control 233 ± 10
  time spent immobile, forced-swim test: 80 ± 13 s
Mice [2]; [11]
  time spent immobile, forced-swim test: 185 ± 5 s
Mice [10]; 5 mg.kg−1 alone
  locomotion: 128 ± 19 events in 15 minutes
Mice [10]; [11]
  locomotion: 114 ± 14 events in 15 minutes

## CCCCC(CC)CNCC(CC)CCCC (stereo not drawn) [Bis(2-ethylhexyl), bis(2-ethylhexyl)ammonium]
MAC13 tumours
  MAC13 tumour growth compared to vehicle control: statistically significant reduction in tumour growth
  tolerability in tumour-bearing mice: no negative signs
MAC13 cells
  pIC50 reduction in MAC13 cell metabolism: 5.3 ± 0.2
MDA-MB-468 cells [3]
  pIC50 reduction of cell metabolism: 3.3 ± 0.1
  pIC50 reduction of cell metabolism, non-targeting control: 3.37 ± 0.08
[1]
  mACh R affinity pKi ± SEM (n): 3.9 ± 0.2 (6)
  Ki: 120 µM
  mACh R Ki/σ-1 R Ki: 4.1
MCF7 cells
  effect on MCF7 cells in MTS assay: without effect
sigma-2 receptor
  σ-2 R affinity pKi ± SEM (n): 4.0 ± 0.2 (3)
sigma-2 receptor; read-out: σ-2 R affinity Ki
  Ki: 91 µM
MDA-MB-468 cells [6]; Fura-2 loaded MDA-MB-468 cells
  pEC50 calcium response: 2.9 ± 0.1

## CCCC[N+](CCCC)(CCCC)CCCC [Tetrabutyl, tetrabutylammonium]
sigma-2 receptor
  Ki: 60 µM

## CCCNCCC.Cl [Dipropyl]
sigma-2 receptor
  σ-2 R affinity pKi ± SEM (n): 4.10 ± 0.07 (3)
sigma-2 receptor; read-out: σ-2 R affinity Ki
  Ki: 79 µM

## CCCCCCCCN(CCCCCCCC)CCCCCCCC.Cl [Trioctyl]
sigma-2 receptor
  σ-2 R affinity pKi ± SEM (n): 3.74 ± 0.06 (3)
sigma-2 receptor; read-out: σ-2 R affinity Ki
  Ki: 180 µM
